# Assay results from BindingDB's records for doi:10.1042/BJ20030674 (University of Padova, 2003).
# Experiment: In vitro kinase assay using purified enzyme, was incubated at room temperature with substrate, and test compounds in the presence of 100 uM ATP/ [gamma-33P] ATP. 33P incorporation was measured with scintillation counter. IC50 values were calculated from dose-response curves; from these calculated apparent inhibition constants (Ki) were obtained usin
# Conditions: pH 7.5
row,IC50 [µM],SMILES
1,3.2,Clc1cccc(Nc2nccc(-c3ccnc(NCCc4cnc[nH]4)c3)n2)c1 [N-(3-chlorophenyl)-4-(2-{[2-(1H-imidazol-4-yl)ethyl]amino}pyridin-4-yl)pyrimidin-2-amine]
2,3.6,"OCCCNc1cc(-c2ccnc(Nc3cccc(OC(F)(F)C(F)F)c3)n2)ccn1 [3-{[4-(2-{[3-(1,1,2,2-tetrafluoroethoxy)phenyl]amino}pyrimidin-4-yl)pyridin-2-yl]amino}propan-1-ol]"
3,9.6,NCCNc1cc(-c2ccnc(Nc3cccc(Cl)c3)n2)ccn1 [4-{2-[(2-aminoethyl)amino]pyridin-4-yl}-N-(3-chlorophenyl)pyrimidin-2-amine]
